Data: publication PMC6151762, “Halogenated 1-Hydroxynaphthalene-2-Carboxanilides Affecting Photosynthetic Electron Transport in Photosystem II” (Molecules : A Journal of Synthetic Chemistry and Natural …, 2017)
Several values for one entry are separate records, joined by “and”; a condition that tells them apart may be missing. Identical values can stand only once. Like-named read-outs stand apart in the source and are kept apart here.

Assays:
[1] = system: photosynthetic electron transport (PET) in spinach chloroplasts; design: method as in Gonec et al. [11]; settings: compounds 1-7 published earlier, ref Gonec et al. [11], read-out: PET Inhibition IC50; cited from earlier work
[2] = Aqueous solubility (qualitative); format: physicochemical; settings: compared with 2,5-, 2,6-, 3,4- and 3,5-disubstituted derivatives
[3] = system: photosynthetic electron transport (PET) in spinach chloroplasts; experiment: Inhibition of photosynthetic electron transport (PET) in spinach chloroplasts (DCPIP photoreduction); format: biochemical, Spinacia oleracea L.; settings: chlorophyll 30 mg/L
Experimental: Chloroplasts were prepared from spinach (Spinacia oleracea L.) according to Masarovicova and Kralova. The inhibition of photosynthetic electron transport (PET) in spinach chloroplasts was determined spectrophotometrically (Genesys 6, Thermo Scientific, USA), using an artificial electron acceptor 2,6-dichlorophenol-indophenol (DCIPP) according to Kralova et al., and the rate of photosynthetic electron transport was monitored as photoreduction of DCPIP. The measurements were carried out in phosphate buffer (0.02 M, pH 7.2) containing sucrose (0.4 M), MgCl2 (0.005 M) and NaCl (0.015 M). The chlorophyll content was 30 mg/L in these experiments, and the samples were irradiated (~100 W/m^2 with 10 cm distance) with a halogen lamp (250 W) using a 4-cm water filter to prevent warming of the samples (suspension temperature 22 °C). The studied compounds were dissolved in DMSO due to their limited water solubility. […] The inhibitory efficiency of the studied compounds was expressed by IC50 values, i.e., by molar concentration of the compounds causing a 50% decrease in the […] relative to the untreated control.

[4] = system: chlorophyll a (Chla) in pigment-protein complexes in PS II; experiment: Fluorescence of chlorophyll a in spinach chloroplasts; format: biochemical, Spinacia oleracea L.; settings: with increasing concentration (c = 0, 56, 220, 431 μM); λex = 436 nm; chlorophyll 10 mg/L
Experimental: (§1) The fluorescence emission spectra of chlorophyll a (Chla) and aromatic amino acids in spinach chloroplasts were recorded on fluorescence spectrophotometer F-2000 (Hitachi, Tokyo, Japan) using excitation wavelength λex = 436 nm for monitoring the fluorescence of Chla and λex = 275 nm for monitoring the fluorescence of aromatic amino acids, excitation slit 20 nm and emission slit 10 nm. The samples were kept in the dark for 2 min prior to the measurement. The phosphate buffer used for dilution of the chloroplast suspension was the same as described above. Due to low aqueous solubility, the compounds were added to a chloroplast suspension in DMSO solution. The DMSO concentration in all samples was the same as in the control (10%). The chlorophyll concentration in chloroplast suspension was 10 mg/L.

[5] = system: aromatic amino acids (AAA) in photosynthetic proteins situated mainly in PS II; experiment: Fluorescence of aromatic amino acids in spinach chloroplasts; format: biochemical, Spinacia oleracea L.; settings: with increasing concentration (c = 0-47.2 μM); λex = 275 nm; chlorophyll 10 mg/L
Experimental: as §1

Compound | IC50 [3] | melting point | other results
O=C(Nc1ccccc1)c1ccc2ccccc2c1O [Compound 1] |  |  | IC50 [1]: 31.3 µM
O=C(Nc1ccccc1Cl)c1ccc2ccccc2c1O [Compound 2] |  |  | IC50 [1]: 29.4 µM
O=C(Nc1cccc(Cl)c1)c1ccc2ccccc2c1O [Compound 3] |  |  | IC50 [1]: 7.9 µM
O=C(Nc1ccc(Cl)cc1)c1ccc2ccccc2c1O [Compound 4] |  |  | IC50 [1]: 10.8 µM
O=C(Nc1ccccc1Br)c1ccc2ccccc2c1O [Compound 5] |  |  | IC50 [1]: 61.9 µM
O=C(Nc1cccc(Br)c1)c1ccc2ccccc2c1O [Compound 6] |  |  | IC50 [1]: 8.2 µM
O=C(Nc1ccc(Br)cc1)c1ccc2ccccc2c1O [Compound 7] |  |  | IC50 [1]: 9.6 µM
O=C(Nc1cccc(Cl)c1Cl)c1ccc2ccccc2c1O [Compound 8, N-(2,3-Dichlorophenyl)-1-hydroxynaphthalene-2-carboxamide] | 235 µM |  | aqueous solubility [2]: limited aqueous solubility
O=C(Nc1ccc(Cl)cc1Cl)c1ccc2ccccc2c1O [Compound 9, N-(2,4-Dichlorophenyl)-1-hydroxynaphthalene-2-carboxamide] | 531 µM |  | aqueous solubility [2]: limited aqueous solubility
O=C(Nc1cc(Cl)ccc1Cl)c1ccc2ccccc2c1O [Compound 10, N-(2,5-Dichlorophenyl)-1-hydroxynaphthalene-2-carboxamide] | 59.6 µM |  | 
O=C(Nc1c(Cl)cccc1Cl)c1ccc2ccccc2c1O [Compound 11, N-(2,6-Dichlorophenyl)-1-hydroxynaphthalene-2-carboxamide] | 100 µM |  | 
O=C(Nc1ccc(Cl)c(Cl)c1)c1ccc2ccccc2c1O [Compound 12, N-(3,4-Dichlorophenyl)-1-hydroxynaphthalene-2-carboxamide] | 13.3 µM |  | 
O=C(Nc1cc(Cl)cc(Cl)c1)c1ccc2ccccc2c1O [Compound 13, N-(3,5-Dichlorophenyl)-1-hydroxynaphthalene-2-carboxamide] | 5.2 µM |  | 
O=C(Nc1cc(Cl)c(Cl)cc1Cl)c1ccc2ccccc2c1O [Compound 14, 1-Hydroxy-N-(2,4,5-trichlorophenyl)naphthalene-2-carboxamide] | 153 µM |  | 
O=C(Nc1c(Cl)cc(Cl)cc1Cl)c1ccc2ccccc2c1O [Compound 15, 1-Hydroxy-N-(2,4,6-trichlorophenyl)naphthalene-2-carboxamide] | 10.6 µM |  | 
O=C(Nc1cc(Cl)c(Cl)c(Cl)c1)c1ccc2ccccc2c1O [Compound 16, 1-Hydroxy-N-(3,4,5-trichlorophenyl)naphthalene-2-carboxamide] | 8 µM |  | 
O=C(Nc1ccc(Br)cc1Br)c1ccc2ccccc2c1O [Compound 17, N-(2,4-Dibromophenyl)-1-hydroxynaphthalene-2-carboxamide] | 505 µM | 185 to 188 °C | aqueous solubility [2]: limited aqueous solubility
O=C(Nc1cc(Br)ccc1Br)c1ccc2ccccc2c1O [Compound 18, N-(2,5-Dibromophenyl)-1-hydroxynaphthalene-2-carboxamide] | 7.6 µM | 198 to 200 °C | 
O=C(Nc1c(Br)cccc1Br)c1ccc2ccccc2c1O [Compound 19, N-(2,6-Dibromophenyl)-1-hydroxynaphthalene-2-carboxamide] | 78 µM | 212 to 216 °C | 
O=C(Nc1c(Br)cc(Br)cc1Br)c1ccc2ccccc2c1O [Compound 20, 1-Hydroxy-N-(2,4,6-tribromophenyl)naphthalene-2-carboxamide] | 45 µM | 115 to 118 °C | 
O=C(Nc1ccc(Cl)cc1Br)c1ccc2ccccc2c1O [Compound 21, N-(2-Bromo-4-chlorophenyl)-1-hydroxynaphthalene-2-carboxamide] | 278 µM | 182 to 184 °C | aqueous solubility [2]: limited aqueous solubility
O=C(Nc1ccc(Br)cc1Cl)c1ccc2ccccc2c1O [Compound 22, N-(4-Bromo-2-chlorophenyl)-1-hydroxynaphthalene-2-carboxamide] | 171 µM | 186 to 187 °C | aqueous solubility [2]: limited aqueous solubility
O=C(Nc1cc(Br)ccc1Cl)c1ccc2ccccc2c1O [Compound 23, N-(5-Bromo-2-chlorophenyl)-1-hydroxynaphthalene-2-carboxamide] | 60.3 µM | 178 to 180 °C | intensity of Chla fluorescence emission band at 686 nm [4]: gradual decrease; AAA fluorescence at 334 nm [5]: quenching of AAA fluorescence at 334 nm was observed
O=C(Nc1ccc(Br)c(Cl)c1)c1ccc2ccccc2c1O [Compound 24, N-(4-Bromo-3-chlorophenyl)-1-hydroxynaphthalene-2-carboxamide] | 6.7 µM | 203 to 205 °C | 
CN(C)C(=O)Nc1ccc(Cl)c(Cl)c1 [DCMU, 3-(3,4-dichlorophenyl)-1,1-dimethylurea, reference compound] | ~1.9 µM and 1.9 µM |  | 
